The NIST ThermoML archive (doi:10.1021/je060271a)
± gives the expanded uncertainty stated by the source.

Conditions: 303.15 K, Liquid, Vibrating tube method

CCCCCCC(=O)OCC(COC(=O)CCCCCC)(COC(=O)CCCCCC)COC(=O)CCCCCC [pentaerythritol tetraheptanoate]
Conditions | mass density [kg/m3]
26666 kPa | 986.5 ± 1.2
26712 kPa | 986.5 ± 1.2
26749 kPa | 986.4 ± 1.2
26795 kPa | 986.4 ± 1.2
26834 kPa | 986.6 ± 1.2
26872 kPa | 986.6 ± 1.2
26910 kPa | 986.6 ± 1.2
26957 kPa | 986.6 ± 1.2
26996 kPa | 986.6 ± 1.2
27043 kPa | 986.5 ± 1.2
27083 kPa | 986.7 ± 1.2
27122 kPa | 986.7 ± 1.2
27169 kPa | 986.7 ± 1.2
27209 kPa | 986.8 ± 1.2
27249 kPa | 986.7 ± 1.2
27289 kPa | 987 ± 1.2
27337 kPa | 986.8 ± 1.2
27376 kPa | 986.8 ± 1.2
27425 kPa | 986.9 ± 1.2
27465 kPa | 987 ± 1.2
27506 kPa | 986.9 ± 1.2
27555 kPa | 986.8 ± 1.2
27596 kPa | 986.9 ± 1.2
27638 kPa | 986.9 ± 1.2
27679 kPa | 987.1 ± 1.2
27728 kPa | 987 ± 1.2
27770 kPa | 987 ± 1.2
27811 kPa | 987.1 ± 1.2
27861 kPa | 987.1 ± 1.2
27904 kPa | 987 ± 1.2
27954 kPa | 987.1 ± 1.2
27997 kPa | 987.2 ± 1.2
28082 kPa | 987.3 ± 1.2
28133 kPa | 987.4 ± 1.2
28176 kPa | 987.3 ± 1.2
28221 kPa | 987.4 ± 1.2
28273 kPa | 987.3 ± 1.2
28316 kPa | 987.3 ± 1.2
28360 kPa | 987.4 ± 1.2
28404 kPa | 987.3 ± 1.2
28457 kPa | 987.4 ± 1.2
28501 kPa | 987.5 ± 1.2
28545 kPa | 987.5 ± 1.2
28598 kPa | 987.5 ± 1.2
28642 kPa | 987.5 ± 1.2
28687 kPa | 987.5 ± 1.2
28740 kPa | 987.6 ± 1.2
28785 kPa | 987.6 ± 1.2
28832 kPa | 987.7 ± 1.2
28886 kPa | 987.6 ± 1.2
28932 kPa | 987.7 ± 1.2
28977 kPa | 987.6 ± 1.2
29023 kPa | 987.9 ± 1.2
29079 kPa | 987.7 ± 1.2
29125 kPa | 987.7 ± 1.2
29181 kPa | 987.8 ± 1.2
29227 kPa | 987.9 ± 1.2
29274 kPa | 987.9 ± 1.2
29321 kPa | 987.9 ± 1.2
29379 kPa | 987.9 ± 1.2
29475 kPa | 988 ± 1.2
29523 kPa | 988.1 ± 1.2
29581 kPa | 988 ± 1.2
29630 kPa | 988 ± 1.2
29679 kPa | 988.1 ± 1.2
29739 kPa | 988.1 ± 1.2
29790 kPa | 988.1 ± 1.2
29841 kPa | 988.3 ± 1.2
29903 kPa | 988.1 ± 1.2
29949 kPa | 988.3 ± 1.2
29986 kPa | 988.3 ± 1.2
30029 kPa | 988.3 ± 1.2
30067 kPa | 988.3 ± 1.2
30103 kPa | 988.3 ± 1.2
30138 kPa | 988.3 ± 1.2
30182 kPa | 988.4 ± 1.2
30218 kPa | 988.3 ± 1.2
30253 kPa | 988.3 ± 1.2
30297 kPa | 988.2 ± 1.2
30334 kPa | 988.4 ± 1.2
30370 kPa | 988.5 ± 1.2
30407 kPa | 988.5 ± 1.2
30451 kPa | 988.5 ± 1.2
30489 kPa | 988.5 ± 1.2
30527 kPa | 988.5 ± 1.2
30576 kPa | 988.6 ± 1.2
30613 kPa | 988.5 ± 1.2
30651 kPa | 988.6 ± 1.2
30698 kPa | 988.6 ± 1.2
30738 kPa | 988.8 ± 1.2
30778 kPa | 988.7 ± 1.2
30814 kPa | 988.7 ± 1.2
30846 kPa | 988.7 ± 1.2
30873 kPa | 988.8 ± 1.2
30905 kPa | 988.7 ± 1.2
30932 kPa | 988.8 ± 1.2
30958 kPa | 988.8 ± 1.2
30990 kPa | 988.8 ± 1.2
31018 kPa | 988.8 ± 1.2
31045 kPa | 988.8 ± 1.2
31072 kPa | 988.9 ± 1.2
31105 kPa | 988.9 ± 1.2
31132 kPa | 988.9 ± 1.2
31159 kPa | 988.8 ± 1.2
31192 kPa | 989 ± 1.2
31220 kPa | 988.9 ± 1.2
31252 kPa | 989 ± 1.2
31280 kPa | 988.9 ± 1.2
31308 kPa | 989.1 ± 1.2
31335 kPa | 989 ± 1.2
31369 kPa | 989.1 ± 1.2
31398 kPa | 988.8 ± 1.2
